Numbers after ± are expanded uncertainties.
Test: xn = mol fraction of the nth substance listed
Settings: Fluid (supercritical or subcritical phases), Buoyancy - hydrostatic balance with magnetic suspension - one sinker

[Ar] [argon] + O=C=O
Settings	mass density [kg/m3]
373.22 K, 16970 kPa, x1 = 0.99	217.712 ± 0.27
373.22 K, 18968 kPa, x1 = 0.99	242.204 ± 0.3
373.22 K, 30957 kPa, x1 = 0.99	378.472 ± 0.47
373.23 K, 22970 kPa, x1 = 0.99	289.853 ± 0.36
373.23 K, 24965 kPa, x1 = 0.99	312.835 ± 0.39
373.23 K, 26964 kPa, x1 = 0.99	335.305 ± 0.42
373.24 K, 10977 kPa, x1 = 0.95	143.58 ± 0.19
373.24 K, 14972 kPa, x1 = 0.99	192.822 ± 0.24
373.24 K, 20969 kPa, x1 = 0.99	266.255 ± 0.33
373.24 K, 28960 kPa, x1 = 0.99	357.169 ± 0.45
373.25 K, 10978 kPa, x1 = 0.99	142.11 ± 0.18
373.25 K, 12977 kPa, x1 = 0.99	167.627 ± 0.21
373.28 K, 18969 kPa, x1 = 0.95	245.312 ± 0.32
373.29 K, 16972 kPa, x1 = 0.95	220.418 ± 0.28
373.29 K, 28963 kPa, x1 = 0.95	362.242 ± 0.47
373.29 K, 30959 kPa, x1 = 0.95	383.847 ± 0.5
373.3 K, 12975 kPa, x1 = 0.95	169.447 ± 0.22
373.31 K, 14971 kPa, x1 = 0.95	195.043 ± 0.25
373.31 K, 20969 kPa, x1 = 0.95	269.779 ± 0.35
373.31 K, 26966 kPa, x1 = 0.95	340.003 ± 0.44
373.32 K, 22966 kPa, x1 = 0.95	293.716 ± 0.38
373.32 K, 24968 kPa, x1 = 0.95	317.167 ± 0.41
398.26 K, 12977 kPa, x1 = 0.99	155.613 ± 0.2
398.28 K, 10979 kPa, x1 = 0.99	132.065 ± 0.17
398.28 K, 20968 kPa, x1 = 0.99	246.59 ± 0.31
398.28 K, 30957 kPa, x1 = 0.99	350.842 ± 0.43
398.29 K, 26962 kPa, x1 = 0.99	310.557 ± 0.39
398.29 K, 28962 kPa, x1 = 0.99	330.96 ± 0.41
398.3 K, 14970 kPa, x1 = 0.99	178.803 ± 0.22
398.3 K, 18971 kPa, x1 = 0.99	224.388 ± 0.28
398.3 K, 22969 kPa, x1 = 0.99	268.392 ± 0.33
398.3 K, 24967 kPa, x1 = 0.99	289.714 ± 0.36
398.31 K, 16969 kPa, x1 = 0.99	201.75 ± 0.25
398.31 K, 26966 kPa, x1 = 0.95	314.455 ± 0.4
398.31 K, 28963 kPa, x1 = 0.95	335.112 ± 0.42
398.33 K, 14977 kPa, x1 = 0.95	180.735 ± 0.23
398.33 K, 24965 kPa, x1 = 0.95	293.233 ± 0.37
398.33 K, 30959 kPa, x1 = 0.95	355.238 ± 0.46
398.34 K, 22971 kPa, x1 = 0.95	271.617 ± 0.34
398.35 K, 18973 kPa, x1 = 0.95	226.932 ± 0.29
398.35 K, 20972 kPa, x1 = 0.95	249.488 ± 0.32
398.36 K, 12973 kPa, x1 = 0.95	157.068 ± 0.2
398.36 K, 16970 kPa, x1 = 0.95	203.95 ± 0.26
398.37 K, 10980 kPa, x1 = 0.95	133.275 ± 0.17
423.22 K, 10980 kPa, x1 = 0.99	123.515 ± 0.16
423.22 K, 16967 kPa, x1 = 0.99	188.325 ± 0.24
423.23 K, 14969 kPa, x1 = 0.99	166.982 ± 0.21
423.24 K, 12971 kPa, x1 = 0.99	145.339 ± 0.18
423.28 K, 18967 kPa, x1 = 0.99	209.329 ± 0.26
423.3 K, 20973 kPa, x1 = 0.99	230.071 ± 0.29
423.3 K, 22965 kPa, x1 = 0.99	250.298 ± 0.31
423.3 K, 30956 kPa, x1 = 0.99	327.48 ± 0.41
423.31 K, 12974 kPa, x1 = 0.95	146.65 ± 0.18
423.32 K, 24968 kPa, x1 = 0.95	273.195 ± 0.34
423.33 K, 10981 kPa, x1 = 0.95	124.535 ± 0.16
423.33 K, 14975 kPa, x1 = 0.95	168.571 ± 0.21
423.33 K, 24964 kPa, x1 = 0.99	270.201 ± 0.34
423.33 K, 26968 kPa, x1 = 0.95	292.962 ± 0.36
423.33 K, 28959 kPa, x1 = 0.99	308.785 ± 0.39
423.34 K, 18970 kPa, x1 = 0.95	211.466 ± 0.26
423.34 K, 26961 kPa, x1 = 0.99	289.685 ± 0.36
423.34 K, 28966 kPa, x1 = 0.95	312.296 ± 0.39
423.35 K, 16970 kPa, x1 = 0.95	190.146 ± 0.24
423.35 K, 20971 kPa, x1 = 0.95	232.422 ± 0.29
423.35 K, 30960 kPa, x1 = 0.95	331.165 ± 0.41
423.36 K, 22968 kPa, x1 = 0.95	252.983 ± 0.32

Source: the NIST ThermoML archive (doi:10.1016/j.jct.2015.07.014)
